Measured values: US20230212156A1 (FERMION OY, priority 2020, published 2023)

Columns and labels:
[1] = 10 g sample, 3 min sieving; for Particle size distribution (Alpine AJS) <425 μm: mass fraction passing 425 μm sieve; for Particle size distribution (Alpine AJS) >75 μm: mass fraction retained on 75 μm sieve; for Particle size distribution (Alpine AJS) >180 μm: mass fraction retained on 180 μm sieve
Excerpt: In general, the method for carrying out an air jet sieving procedure is as follows.
Together with sample material the sieve is placed on the unit and covered with a lid. A powerful industrial vacuum cleaner generates a strong jet of air which disperses the particles on the sieve through the slotted nozzle rotating below the sieve mesh. Thus the particles are dispersed with each rotation and are distributed over the complete sieve surface. The jet of air causes a continuous new orientation of the particles on the sieve surface. Particles with sizes smaller than the sieve apertures are sucked in by the vacuum cleaner. When using sieves of certain height (e.g. 25 mm height), the inflowing air causes the particles to impact on the lid, thereby helping to destroy agglomerates. The material remaining on the sieve can then be weighed, allowing the amount of the sample having a particle size greater than the aperture of the mesh to be calculated.
Preferably, the sample amount is representative of the sample, and has a mass of at least 10 g. Thus, in one embodiment, the sample amount is 10 g. In this or any other embodiment, sieving time is suitably 3 minutes.
The sieves for use in the air jet sieving method are woven metal sieves. The technical requirements of the test sieves are specified in ISO standard ISO 3310-1:2016 Test sieves—Technical requirements and testing—Part 1: Test sieves of metal wire cloth. The sieves are also according to standard ASTM E11.
The sieving is done according to the process described in Ph.Eur. 2.9.38 Particle-size distribution estimation by analytical sieving. Air jet sieving method is used to determine the mass distribution of particles.
Sieving was done using woven metal sieves according to ISO standard ISO 3310-1:2016 (Test sieves—Technical requirements and testing—Part 1: Test sieves of metal wire cloth). The sieving was done using a single sieve at a time using the appropriate sieve size (75 gm, 180 gm, 425 gm). The sieving was done according to the process described in Ph.Eur. 2.9.38 (Particle-size distribution estimation by analytical sieving).
The sieve was tared. 10 grams of the particle mixture was weighed on the sieve. The sieve was placed on air jet sieve unit and covered with a lid. The vacuum cleaner was switched on, thereby creating a vacuum inside the sieving chamber. The sieving under vacuum was continued for 3 minutes. The finest particles were pulled downwards trough the sieve and the coarse particles remained on the sieve. At the end of the sieving process, the sieve was weighed and the mass of particles remained on the sieve was determined. The sieving process was done as described above using one sieve at a time until the particle size distribution was determined.

[2] = Particle size distribution by laser light diffraction (Beckman Coulter LS 230); conditions: for Particle size / particle size distribution by laser light diffraction, in words: based on FIGS. 1-4; for Dv10 / Dv50 / Dv90: volume weighted, Fraunhofer model, suspended in glycerol and water (1:1), 100 mg sample
[3] = alcohols, esters, ethers and hydrocarbons; cited from earlier work

| Structure (SMILES) | Particle size distribution (Alpine AJS) <425 μm [1] | Particle size distribution (Alpine AJS) >75 μm [1] | Particle size distribution (Alpine AJS) >180 μm [1] | Particle size / particle size distribution by laser light diffraction, in words [2] | Dv10 [2] | Dv50 [2] | Dv90 [2] | Solubility in most organic solvents [3] |
| --- | --- | --- | --- | --- | --- | --- | --- | --- |
| O=C1CN(/N=C/c2ccc([N+](=O)[O-])o2)C(=O)N1 [Comparison Example 9, nitrofurantoin anhydrate, reference compound] | 27% | 99% | 89% |  |  |  |  |  |
| O=C1CN(/N=C/c2ccc([N+](=O)[O-])o2)C(=O)N1 [Comparison example 8, nitrofurantoin anhydrate, reference compound] |  |  |  | smaller than in example 2 |  |  |  |  |
| O=C1CN(/N=C/c2ccc([N+](=O)[O-])o2)C(=O)N1 [Example 1, nitrofurantoin anhydrate] | 96% | 99% | 76% |  |  |  |  |  |
| O=C1CN(/N=C/c2ccc([N+](=O)[O-])o2)C(=O)N1 [Example 2a, nitrofurantoin anhydrate] | 95% | 98% | 72% | narrow particle size distribution | 126 μm | 264 μm | 448 μm |  |
| O=C1CN(/N=C/c2ccc([N+](=O)[O-])o2)C(=O)N1 [Example 2b, nitrofurantoin anhydrate] | 98% | 98% | 67% | narrow particle size distribution | 163 μm | 348 μm | 667 μm |  |
| O=C1CN(/N=C/c2ccc([N+](=O)[O-])o2)C(=O)N1 [Example 2c, nitrofurantoin anhydrate] | 95% | 98% | 70% | narrow particle size distribution | 118 μm | 252 μm | 466 μm |  |
| O=C1CN(/N=C/c2ccc([N+](=O)[O-])o2)C(=O)N1 [Example 3, nitrofurantoin anhydrate] | 98% | 97% | 68% |  |  |  |  |  |
| O=C1CN(/N=C/c2ccc([N+](=O)[O-])o2)C(=O)N1 [Example 4, nitrofurantoin anhydrate] | 98% | 99% | 80% |  |  |  |  |  |
| O=C1CN(/N=C/c2ccc([N+](=O)[O-])o2)C(=O)N1 [Example 5a, nitrofurantoin anhydrate] | 97% | 96% | 51% |  |  |  |  |  |
| O=C1CN(/N=C/c2ccc([N+](=O)[O-])o2)C(=O)N1 [Example 5b, nitrofurantoin anhydrate] | 98% | 95% | 52% |  |  |  |  |  |
| O=C1CN(/N=C/c2ccc([N+](=O)[O-])o2)C(=O)N1 [Example 5c, nitrofurantoin anhydrate] | 99% | 93% | 51% |  |  |  |  |  |
| O=C1CN(/N=C/c2ccc([N+](=O)[O-])o2)C(=O)N1 [Example 6, nitrofurantoin anhydrate] | 98% | 87% | 10% | smaller than in example 2 |  |  |  |  |
| O=C1CN(/N=C/c2ccc([N+](=O)[O-])o2)C(=O)N1 [Example 7, nitrofurantoin anhydrate] | 99% | 94% | 36% | smaller than in example 2 |  |  |  |  |
| O=C1CN(/N=C/c2ccc([N+](=O)[O-])o2)C(=O)N1 [Nitrofurantoin anhydrate, 1-[[(5-nitro-2-furanyl)methylene]amino]-2,4-imidazolidinedione] |  |  |  |  |  |  |  | sparingly soluble |
